Experimental data as given in patent US20140045908A1, “HSP90 INHIBITORY COMPOUNDS IN TREATING JAK/STAT SIGNALING-MEDIATED CANCERS” (SYNTA PHARMACEUTICALS CORP., priority 2011, published 2014).

Experiments:
[1] = tested on: MV4-11 cells; experiment: Cell viability assay (AlamarBlue, 72 h); assay type: cell-based, human
Procedure: (§1) All cell lines were obtained from the ATCC (Rockville, Md., USA), with the exception of SET-2 cells which were purchased from the German Collection of Microorganisms and Cell Cultures (DSMZ, Germany). Cells were maintained and cultured according to standard techniques at 37° C. in 5% (v/v) CO2 using culture medium recommended by the supplier.
(§2) Cells were grown in 96-well plates based on optimal growth rates determined empirically for each line. Twenty-four hours after plating, cells were dosed with the indicated compound or DMSO (0.3%) for 72 h. AlamarBlue (Invitrogen, Carlsbad, Calif., USA) was added (10% v/v) to the cells, and the plates were incubated for 3 h and subjected to fluorescence detection (Ex=545 nm, Em=600 nm) in a SpectraMax Plus 384 microplate reader (Molecular Devices, Sunnyvale, Calif., USA). Data are normalized to percent of control, with IC50 values based on a four-parameter logistic dose response curve (model 205) using XLfit version 5.1 from IDBS (Guildford, U.K.).

[2] = tested on: DU145 cells; experiment: Cell viability assay (AlamarBlue, 72 h); assay type: cell-based, human
Procedure: as §1, §2

[3] = tested on: SET-2 cells; experiment: Cell viability assay (AlamarBlue, 72 h); assay type: cell-based, human
Procedure: as §1, §2

[4] = tested on: JAK2 signaling in DU145 cells; experiment: Western blot of JAK/STAT proteins in DU145 cells; assay type: cell-based, human
Procedure: DU145 cells were dosed with graded concentrations of ganetespib for 24 h and cell lysates subject to western blot to determine JAK/STAT and target protein levels using the antibodies indicated.
DU145 cells were treated with DMSO (control, C), 15 nM, 60 nM or 240 nM ganetespib for either 24 or 48 h and lysates probed by western blot with the indicated antibodies.
Cells were disrupted in lysis buffer (CST) and solubilized in 2% SDS. Xenograft tumors (average volume of 100-200 mm3) were excised, cut in half, and flash frozen in liquid nitrogen. Each tumor fragment was lysed in 0.5 mL of lysis buffer using a FastPrep-24 homogenizer and Lysing Matrix A (MP Biomedicals, Solon, Ohio, USA) and lysates clarified by centrifugation. Equal amounts of proteins were resolved by SDS-PAGE and immunoblotted with indicated antibodies. The antigen-antibody complex was visualized and quantitated using an Odyssey system (LI-COR, Lincoln, Nebr., USA).

[5] = tested on: HEL92.1.7 cells; experiment: Flow cytometry cell cycle analysis; assay type: cell-based, human
Procedure: HEL92.1.7 cells were plated at 0.5×10^6 cells/mL and treated as indicated. Cells were harvested and stained with propidium iodide using the BD Cycle TEST PLUS Reagent Kit (BD Biosciences, San Jose, Calif., USA) according to the manufacturer's instructions. Twenty thousand cells were analyzed for their DNA content using a FACS Caliber cytometer (BD Biosciences).

[6] = tested on: MV4-11 xenografts; experiment: MV4-11 acute myeloid leukemia xenograft model; assay type: in vivo, SCID mice
Procedure: Mice bearing established MV4-11 xenografts (100-200 mm3, n=8 mice/group) were i.v. dosed (arrowheads) with ganetespib at either 25 or 150 mg/kg once weekly for 3 weeks, or at the HNSTD of 25 mg/kg five-times per week, as indicated. % T/C values are indicated to the right of each growth curve and the error bars are the s.e.m.
Eight-week-old female immunodeficient CB-17/Icr-Prkdcscid/Crl (SCID) mice (Charles River Laboratories, Wilmington, Mass.) were maintained in a pathogen-free environment, and all in vivo procedures were approved by the Synta Pharmaceuticals Corp. Institutional Animal Care and Use Committee. For the MV4-11 model, tumor cells were subcutaneously implanted in SCID mice as previously described (34). Tumor volumes (V) were calculated by caliper measurements of the width (W), length (L), and thickness (T) of each tumor using the formula: V=0.5236 (LWT).
Animals with 100-200 mm^3 tumors were then randomized into treatment groups of 8 and i.v. dosed via the tail vein at 10 mL/kg body weight with either vehicle or ganetespib formulated in 10/18 DRD (10% DMSO, 18% Cremophor RH 40, 3.6% dextrose, 68.4% water). Tumor growth inhibition was monitored by tumor volume measurements twice weekly. As a measurement of in vivo efficacy, the % T/C value was determined from the change in average tumor volumes of each treated group relative to the vehicle-treated or itself in the case of tumor regression. Statistical significance was determined using a Kruskal-Wallis one-way ANOVA followed by the Tukey Test multiple comparison procedure.
For both models, studies were conducted at the highest non-severely toxic doses (NHSTDs) of 150 mg/kg ganetespib one-time per week or 25 mg/kg ganetespib 5×/week for 3 weeks based on prior tolerability studies conducted in non-tumor bearing mice.

[7] = tested on: JAK/STAT target and cell cycle gene expression in HEL92.1.7 cells; experiment: RNA expression profiling (RT-PCR, Affymetrix) in HEL92.1.7 cells; assay type: cell-based, human
Procedure: HEL92.1.7 cells were treated with DMSO, P6 (100 or 1000 nM) or ganetespib (25 or 250 nM) for 4 h or 24 h, and total RNA extracted using Trizol (Invitrogen). RNA was purified with the RNeasy kit (Qiagen, Hilden, Germany) and converted to cDNA via an iScript kit (BioRad, Hercules, Calif., USA). Oligonucleotide primers were purchased from SABiosciences (Frederick, Md., USA). PCR was done with iQ SYBR Green Supermix (Bio-Rad), and levels of the tested genes were normalized to HPRT expression using the comparative Ct method.
Biotinylated aRNA was generated by in vitro transcription using Affymetrix GeneChip Expression IVT labeling kit (Affymetrix, Santa Clara, Calif., USA). Fifteen micrograms of labeled aRNA was fragmented and hybridized to Affymetrix GeneChip Human Genome U133 Plus 2 arrays and scanned using a GeneChip Scanner (Affymetrix). Array data were analyzed with the Affymetrix Expression Console Software utilizing the MASS algorithm. In order to generate a threshold for identifying probe sets that have large differences between 1000 nM P6 (4 h) and 250 nM ganetespib (24 h) arrays and their controls in the absence of treatment replicates, data from four control arrays (DMSO only; two at 4 h, and two at 24 h) were used to create an expression level dependent fold-difference envelope that reflects the increasing measurement variability as expression level decreases. This envelope, used in lieu of a fixed fold-difference criteria, was formed by identifying the xth percentile expression-level difference (where x was large, typically 99.9%) at each mean expression level bin. To achieve this, data were used from the six possible comparisons from the four DMSO-only arrays. The resulting, smoothed threshold fold-difference envelope was then applied to the two compound-treated/control array pairs to identify those probe-sets that have large expression level differences between treatment and control. For hierarchical analysis, genes with greater than two fold changes in expression with 250 nM ganetespib were clustered using established algorithms in Cluster (49) and a subset visualized by TreeView.

CC(C)c1cc(-c2nnc(O)n2-c2ccc3c(ccn3C)c2)c(O)cc1O [ganetespib, 3-(2,4-dihydroxy-5-isopropyl-phenyl)-4-(1-methyl-indol-5-yl)-5-hydroxy-[1,2,4] triazole]
sensitivity of cells in vitro [1]: highly sensitive
induction of cell death [2]: potent inducer of cell death
fold more potent than 17-AAG, cell viability [3]: greater than 100 fold
JAK1 kinase level ([4]; 15-240 nM, 24 or 48 h): not targeted for degradation
JAK2, phospho-STAT3 and phospho-SHP2 levels ([4]; 24 h): Loss of JAK2, phospho-STAT3 and phospho-SHP2
cell cycle distribution [5]: temporal G1 and G2/M arrest in HEL92.1.7 cells, with concomitant loss of S phase
tumor regression ([6]; 25 mg/kg i.v. 5×/week for 3 weeks): 84%
tumor growth inhibition ([6]; 25 or 150 mg/kg i.v. once weekly for 3 weeks): significant and dose dependent tumor growth inhibition
time tumor growth stayed suppressed once treatment was discontinued ([6]; both dosing regimens): up to a week or more
expression of cell cycle-related genes ([7]; 250 nM, 24 h): selectively altered the expression of a large set of genes involved in cell cycle-related activities
expression of heat shock protein genes ([7]; 250 nM, 24 h): up-regulation of numerous heat shock protein genes
expression of JAK/STAT target genes (SOCS and PIM family members) ([7]; 4 hour P6 (1000 nM), 24 hour ganetespib (250 nM)): downregulated
